# Patent US20090312407A1, “Synthetic Flavonoids and Pharmaceutical Compositions and Therapeutic Methods of Treatment of Cancer and other Pathologies” (priority 2007, published 2009)
# Several values for one entry are separate records, joined by “and”; a condition that tells them apart may be missing. Identical values can stand only once. Entries after “also recorded” stand apart in the source; their conditions may differ. Like-named read-outs stand apart in the source and are kept apart here.
# How the values were obtained:
# Assay type in all cases: cell-based
# [1] = tested on: MCF-7 cells; assay: Cytotoxicity on MCF-7 cells; settings: for % Inhibition / inhibition at 1 µg/mL / inhibition at 5 µg/mL / inhibition at 10 µg/mL / inhibition at 50 µg/mL: vs 2% DMSO, Table 6; for inhibition at 1 µg/mL / inhibition at 5 µg/mL / inhibition at 10 µg/mL / inhibition at 50 µg/mL: Homo sapiens; for inhibition at 1 µg/mL: MCF7, 1 μg/ml; for inhibition at 5 µg/mL: MCF7, 5 μg/ml; for inhibition at 10 µg/mL: MCF7, 10 μg/ml; for inhibition at 50 µg/mL: MCF7, 50 μg/ml; for inhibitory activity / growth inhibition compared to AZT: MCF-7 cells, same conditions as AZT; for cytotoxic activities on MCF-7 cells: different drug concentrations
# [2] = tested on: H-9 cells; assay: Cytotoxicity on H-9 cells; settings: for Cells (×10^4) Mean / Cells (×10^4): Table 3, 12-05 to 12-09/2005; for % Inhibition / inhibition at 1 µg/mL / inhibition at 5 µg/mL / inhibition at 10 µg/mL / inhibition at 50 µg/mL: vs 2% DMSO, Table 3; for inhibitory activity / growth inhibition compared to AZT: H-9 cells, same conditions as AZT; for inhibition at 1 µg/mL / inhibition at 5 µg/mL / inhibition at 10 µg/mL / inhibition at 50 µg/mL: Homo sapiens; for inhibition at 1 µg/mL: H9, 1 μg/ml; for inhibition at 5 µg/mL: H9, 5 μg/ml; for inhibition at 10 µg/mL: H9, 10 μg/ml; for inhibition at 50 µg/mL: H9, 50 μg/ml
# Excerpt: (§1) The purified and identified analogs were subjected to in vitro biological testing.
# These three congeners were further evaluated in H9 and PC3 cells. AZT was employed as a positive control in all of these experiments.
# [3] = tested on: PC-3 cells; assay: Cytotoxicity on PC-3 cells; settings: for inhibitory activity / growth inhibition compared to AZT: PC-3 cells, same conditions as AZT
# Excerpt: as §1
# [4] = 1 μg/ml, Table 6, 11-14 to 11-18/2005
# [5] = 1 μg/ml, single count, Table 6, 11-14 to 11-18/2005
# [6] = 5 μg/ml, Table 6, 11-14 to 11-18/2005
# [7] = 5 μg/ml, single count, Table 6, 11-14 to 11-18/2005
# [8] = 10 μg/ml, Table 6, 11-14 to 11-18/2005
# [9] = 10 μg/ml, single count, Table 6, 11-14 to 11-18/2005
# [10] = 50 μg/ml, Table 6, 11-14 to 11-18/2005
# [11] = 50 μg/ml, single count, Table 6, 11-14 to 11-18/2005
# [12] = single count, read-out: % Inhibition
compound,measurement,setting,value
COc1ccc(C=CC(=O)c2cc(Br)cc(Br)c2O)cc1OC (stereo in doubt) [CHBr 2M],Cells (×10^4) Mean,[1]; [4],49.08 ×10^4
same,% Inhibition,"[1]; 1 μg/ml, single count",10.95% and 18.73%
same,Cells (×10^4),[1]; [5],48.8 ×10^4 and 51.5 ×10^4 and 47.0 ×10^4
same,Cells (×10^4) Mean,[1]; [6],26.25 ×10^4
same,% Inhibition,"[1]; 5 μg/ml, single count",56.34% and 54.18%
same,Cells (×10^4),[1]; [7],27.0 ×10^4 and 25.3 ×10^4 and 26.5 ×10^4
same,Cells (×10^4) Mean,[1]; [8],7.92 ×10^4
same,% Inhibition,"[1]; 10 μg/ml, single count",84.44% and 87.03%
same,Cells (×10^4),[1]; [9],7.3 ×10^4 and 9.0 ×10^4 and 7.5 ×10^4
same,Cells (×10^4) Mean,[1]; [10],0.75 ×10^4
same,% Inhibition,"[1]; 50 μg/ml, single count",98.27% and 99.14%
same,Cells (×10^4),[1]; [11],0.8 ×10^4 and 1.0 ×10^4 and 0.5 ×10^4
same,inhibition at 1 µg/mL,[1]; [12],15.7%
same,inhibition at 1 µg/mL,[1]; read-out: % Inhibition Mean,15.1%
same,inhibition at 5 µg/mL,[1]; [12],53.3%
same,inhibition at 5 µg/mL,[1]; read-out: % Inhibition Mean,54.6%
same,inhibition at 10 µg/mL,[1]; [12],87.5%
same,inhibition at 10 µg/mL,[1]; read-out: % Inhibition Mean,86.3%
same,inhibition at 50 µg/mL,[1]; [12],98.7%
same,inhibition at 50 µg/mL,[1]; read-out: % Inhibition Mean,98.7%
same,inhibitory activity / growth inhibition compared to AZT,[1],much superior; also recorded: as good or somewhat better
same,cytotoxic activities on MCF-7 cells,[1],good cytotoxic activities
same,Cells (×10^4) Mean,[2]; 1 μg/ml,47.42 ×10^4
same,% Inhibition,"[2]; 1 μg/ml, single count",9.45% and 1.49% and 5.97%
same,Cells (×10^4),"[2]; 1 μg/ml, single count",45.5 ×10^4 and 49.5 ×10^4 and 47.3 ×10^4
same,Cells (×10^4) Mean,[2]; 5 μg/ml,25.33 ×10^4
same,% Inhibition,"[2]; 5 μg/ml, single count",50.75% and 48.76%
same,Cells (×10^4),"[2]; 5 μg/ml, single count",25.5 ×10^4 and 24.8 ×10^4 and 25.8 ×10^4
same,Cells (×10^4) Mean,[2]; 10 μg/ml,17.58 ×10^4
same,% Inhibition,"[2]; 10 μg/ml, single count",67.68%
same,Cells (×10^4),"[2]; 10 μg/ml, single count",18.3 ×10^4 and 16.3 ×10^4
same,Cells (×10^4) Mean,[2]; 50 μg/ml,11.58 ×10^4
same,% Inhibition,"[2]; 50 μg/ml, single count",77.11%
same,Cells (×10^4),"[2]; 50 μg/ml, single count",11.8 ×10^4 and 11.5 ×10^4
same,inhibitory activity / growth inhibition compared to AZT,[2],much superior; also recorded: as good or somewhat better
same,inhibition at 1 µg/mL,[2]; read-out: % Inhibition Mean,5.64%
same,inhibition at 5 µg/mL,[2]; [12],49.2%
same,inhibition at 5 µg/mL,[2]; read-out: % Inhibition Mean,49.6%
same,inhibition at 10 µg/mL,[2]; [12],63.7%
same,inhibition at 10 µg/mL,[2]; read-out: % Inhibition Mean,65%
same,inhibition at 50 µg/mL,[2]; [12],76.6%
same,inhibition at 50 µg/mL,[2]; read-out: % Inhibition Mean,77%
same,inhibitory activity / growth inhibition compared to AZT,[3],much superior; also recorded: as good or somewhat better
COc1cc(C=CC(=O)c2cc(Cl)cc(Cl)c2O)cc(OC)c1OC [CHCl 3M],Cells (×10^4),"[1]; 5 μg/ml, single count, Table 17, 12-12 to 12-16/2005",53.0 ×10^4
COc1ccc(C=CC(=O)c2cc(Cl)cc(Cl)c2O)cc1OC (stereo in doubt) [CHCl 2M],Cells (×10^4) Mean,[1]; [4],49.42 ×10^4
same,% Inhibition,"[1]; 1 μg/ml, single count",16.14% and 13.54%
same,Cells (×10^4),[1]; [5],49.8 ×10^4 and 48.5 ×10^4 and 50.0 ×10^4
same,Cells (×10^4) Mean,[1]; [6],32.33 ×10^4
same,% Inhibition,"[1]; 5 μg/ml, single count",45.53% and 42.07%
same,Cells (×10^4),[1]; [7],32.0 ×10^4 and 31.5 ×10^4 and 33.5 ×10^4
same,Cells (×10^4) Mean,[1]; [8],10.42 ×10^4
same,% Inhibition,"[1]; 10 μg/ml, single count",81.41% and 81.84%
same,Cells (×10^4),[1]; [9],10.0 ×10^4 and 10.8 ×10^4 and 10.5 ×10^4
same,Cells (×10^4) Mean,[1]; [10],0.75 ×10^4
same,% Inhibition,"[1]; 50 μg/ml, single count",99.14%
same,Cells (×10^4),[1]; [11],1.0 ×10^4 and 0.5 ×10^4 and 0.8 ×10^4
same,inhibition at 1 µg/mL,[1]; [12],14%
same,inhibition at 1 µg/mL,[1]; read-out: % Inhibition Mean,14.6%
same,inhibition at 5 µg/mL,[1]; [12],44.7%
same,inhibition at 5 µg/mL,[1]; read-out: % Inhibition Mean,44.1%
same,inhibition at 10 µg/mL,[1]; [12],82.7%
same,inhibition at 10 µg/mL,[1]; read-out: % Inhibition Mean,82%
same,inhibition at 50 µg/mL,[1]; [12],98.3%
same,inhibition at 50 µg/mL,[1]; read-out: % Inhibition Mean,98.7%
same,inhibitory activity / growth inhibition compared to AZT,[1]; listed as CHCI2M,much superior; also recorded: as good or somewhat better
same,cytotoxic activities on MCF-7 cells,[1],good cytotoxic activities
same,Cells (×10^4) Mean,[2]; 1 μg/ml,42.25 ×10^4
same,% Inhibition,"[2]; 1 μg/ml, single count",15.42%
same,Cells (×10^4),"[2]; 1 μg/ml, single count",42.0 ×10^4 and 42.3 ×10^4 and 42.5 ×10^4
same,Cells (×10^4) Mean,[2]; 5 μg/ml,24.00 ×10^4
same,% Inhibition,"[2]; 5 μg/ml, single count",52.74% and 51.74%
same,Cells (×10^4),"[2]; 5 μg/ml, single count",24.0 ×10^4 and 23.8 ×10^4 and 24.3 ×10^4
same,Cells (×10^4) Mean,[2]; 10 μg/ml,12.92 ×10^4
same,% Inhibition,"[2]; 10 μg/ml, single count",77.11% and 71.64%
same,Cells (×10^4),"[2]; 10 μg/ml, single count",13.0 ×10^4 and 11.5 ×10^4 and 14.3 ×10^4
same,Cells (×10^4) Mean,[2]; 50 μg/ml,4.50 ×10^4
same,% Inhibition,"[2]; 50 μg/ml, single count",90.05%
same,Cells (×10^4),"[2]; 50 μg/ml, single count",4.0 ×10^4 and 4.5 ×10^4 and 5.0 ×10^4
same,inhibitory activity / growth inhibition compared to AZT,[2]; listed as CHCI2M,much superior; also recorded: as good or somewhat better
same,inhibition at 1 µg/mL,[2]; [12],16.4%
same,inhibition at 1 µg/mL,[2]; read-out: % Inhibition Mean,15.9%
same,inhibition at 5 µg/mL,[2]; [12],52.2%
same,inhibition at 5 µg/mL,[2]; read-out: % Inhibition Mean,52.2%
same,inhibition at 10 µg/mL,[2]; [12],74.1%
same,inhibition at 10 µg/mL,[2]; read-out: % Inhibition Mean,74.3%
same,inhibition at 50 µg/mL,[2]; [12],92%
same,inhibition at 50 µg/mL,[2]; read-out: % Inhibition Mean,91%
same,inhibitory activity / growth inhibition compared to AZT,[3]; listed as CHCI2M,much superior; also recorded: as good or somewhat better
"Cc1cn([C@H]2C[C@H](N=[N+]=[N-])[C@@H](CO)O2)c(=O)[nH]c1=O [AZT, reference compound]",Cells (×10^4) Mean,"[1]; 1 μg/ml, Table 12, 9-12 to 9-16/2005",45.25 ×10^4
same,Cells (×10^4),"[1]; 1 μg/ml, single count, Table 12, 9-12 to 9-16/2005",46.0 ×10^4 and 45.3 ×10^4 and 44.5 ×10^4
same,Cells (×10^4) Mean,"[1]; 5 μg/ml, Table 12, 9-12 to 9-16/2005",28.58 ×10^4
same,Cells (×10^4),"[1]; 5 μg/ml, single count, Table 12, 9-12 to 9-16/2005",27.8 ×10^4 and 28.0 ×10^4
same,Cells (×10^4) Mean,"[1]; 10 μg/ml, Table 12, 9-12 to 9-16/2005",20.17 ×10^4
same,Cells (×10^4),"[1]; 10 μg/ml, single count, Table 12, 9-12 to 9-16/2005",17.5 ×10^4 and 21.5 ×10^4
same,Cells (×10^4) Mean,"[3]; 5 μg/ml, Table 7, 11-11 to 11-17/2005",71.33 ×10^4
same,% Inhibition,"[3]; 10 μg/ml, single count, vs 2% DMSO, Table 7",38.73%
